From patent publication US11746087B1, “C4-carboxylic acid-substituted tryptamine derivatives and methods of using” (priority 2022, dated 2023)
Where two headings read alike, the source gives them in different places.

How the values were obtained:
[1] = Mouse PK study (IV and PO), plasma parent compound and psilocin by LC-MS/MS; type: in vivo; conditions: male, C57Bl/6, mouse, plasma; for half-life / MRT inf / AUC(0-t) / Cmax / Tmax / AUC(0-inf): C(I) in plasma; for half-life: read-out: Apparent t1/2 (converted); for MRT inf: read-out: MRT0-inf; for AUC(0-t): read-out: AUC0-tlast; for Cmax: read-out: Cmax; for Tmax: read-out: tmax; for AUC(0-inf): read-out: AUC0-inf
Description: Briefly, the procedure was as follows. […] 19, 2022.

DRD2S = DRD2S (Homo sapiens, UniProt P14416); assay: EFC-based cAMP secondary messenger assay, antagonist mode; type: cell-based
DRD2S, sequence (P14416 1-414 isoform P14416-2): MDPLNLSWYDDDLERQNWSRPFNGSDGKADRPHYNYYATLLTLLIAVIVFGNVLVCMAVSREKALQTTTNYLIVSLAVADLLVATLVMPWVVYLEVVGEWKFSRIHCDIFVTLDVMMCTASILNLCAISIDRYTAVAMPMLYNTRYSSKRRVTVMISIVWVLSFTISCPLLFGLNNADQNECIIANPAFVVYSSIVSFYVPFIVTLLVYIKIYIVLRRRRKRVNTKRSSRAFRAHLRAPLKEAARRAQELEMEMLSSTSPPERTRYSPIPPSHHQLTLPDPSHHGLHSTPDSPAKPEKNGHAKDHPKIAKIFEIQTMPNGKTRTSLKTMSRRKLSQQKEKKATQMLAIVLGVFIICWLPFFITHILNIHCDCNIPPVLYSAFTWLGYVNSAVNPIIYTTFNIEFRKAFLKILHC

[2] = iv, 1 mg/kg, 1 mg/kg i.v. C(I), per animal
[3] = oral, 1 mg/kg, 1 mg/kg oral C(I), Mean ± SD, read-out: Plasma concentration of C(I)
[4] = oral, 1 mg/kg, 1 mg/kg oral C(I), mean (n = 2), read-out: Plasma concentration of C(I)
[5] = oral, 1 mg/kg, 1 mg/kg oral C(I), per animal, BLQ <0.5 ng/mL, read-out: Plasma concentration of C(I)
[6] = oral, 3 mg/kg, 3 mg/kg oral C(I), Mean ± SD, read-out: Plasma concentration of C(I)
[7] = oral, 3 mg/kg, 3 mg/kg oral C(I), per animal, BLQ <0.5 ng/mL, read-out: Plasma concentration of C(I)
[8] = oral, 10 mg/kg, 10 mg/kg oral C(I), Mean ± SD, read-out: Plasma concentration of C(I)
[9] = oral, 10 mg/kg, 10 mg/kg oral C(I), per animal, BLQ <0.5 ng/mL, read-out: Plasma concentration of C(I)
[10] = po, 1 mg/kg, 1 mg/kg oral C(I), Mean ± SD
[11] = po, 3 mg/kg, 3 mg/kg oral C(I), Mean ± SD
[12] = po, 3 mg/kg, 3 mg/kg oral C(I), mean (n = 1)
[13] = po, 3 mg/kg, 3 mg/kg oral C(I), per animal
[14] = po, 10 mg/kg, 10 mg/kg oral C(I), Mean ± SD
[15] = po, 10 mg/kg, 10 mg/kg oral C(I), mean (n = 2)
[16] = po, 10 mg/kg, 10 mg/kg oral C(I), per animal

For `CN(C)CCc1c[nH]c2cccc(OC(=O)c3ccc(Br)cc3)c12` [C(I)], the half-life [1, 2] was 1.14 h, the MRT inf [1, 2] was 0.568 h and the concentration at 0.25 h [1, 3] was 0.646 ± 0.251 ng/mL. The concentration at 0.5 h [1, 3] was 0.877 ± 0.376 ng/mL, the concentration at 1 h [1, 4] was 0.898 ng/mL and the concentration at 1 h [1, 5] was 0.775 ng/mL. For the same molecule, the concentration at 2 h [1, 4] was 0.537 ng/mL, the concentration at 2 h [1, 5] was 0.474 ng/mL and the concentration at 4 h ([1]; oral, 1 mg/kg, 1 mg/kg oral C(I), mean (n = 1), read-out: Plasma concentration of C(I)) was 0.352 ng/mL. The concentration at 4 h [1, 5] was 0.352 ng/mL, the concentration at 0.25 h [1, 6] was 2.03 ± 0.37 ng/mL and the concentration at 0.25 h [1, 7] was 1.62 ng/mL. It also gave a concentration at 0.5 h [1, 6] of 2.03 ± 0.112 ng/mL, a concentration at 0.5 h [1, 7] of 1.95 ng/mL and a concentration at 1 h [1, 6] of 1.54 ± 0.206 ng/mL. It also gave a concentration at 1 h [1, 7] of 1.74 ng/mL, a concentration at 2 h [1, 6] of 0.786 ± 0.127 ng/mL and a concentration at 2 h [1, 7] of 0.932 ng/mL. For the same molecule, the concentration at 4 h [1, 6] was 0.907 ± 0.357 ng/mL, the concentration at 6 h [1, 6] was 0.31 ± 0.0605 ng/mL and the concentration at 6 h [1, 7] was 0.371 ng/mL. It also gave a concentration at 0.25 h [1, 8] of 5.67 ± 1.77 ng/mL, a concentration at 0.25 h [1, 9] of 7.2 ng/mL and a concentration at 0.5 h [1, 8] of 8.14 ± 2.42 ng/mL. The concentration at 0.5 h [1, 9] was 6.41 ng/mL, the concentration at 1 h [1, 8] was 5.51 ± 1.85 ng/mL and the concentration at 1 h [1, 9] was 3.79 ng/mL. For the same molecule, the concentration at 2 h [1, 8] was 2.59 ± 1.17 ng/mL, the concentration at 4 h [1, 8] was 2.26 ± 0.673 ng/mL and the concentration at 4 h [1, 9] was 1.71 ng/mL. For the same molecule, the concentration at 6 h [1, 8] was 0.89 ± 0.265 ng/mL, the concentration at 6 h [1, 9] was 0.83 ng/mL and the concentration at 8 h ([1]; oral, 10 mg/kg, 10 mg/kg oral C(I), 8 h, Mean ± SD, read-out: Plasma concentration of C(I)) was 0.545 ± 0.481 ng/mL. It also gave an AUC(0-t) [1, 10] of 1.34 ± 1.02 ng·h/mL, a Cmax [1, 10] of 0.877 ± 0.376 ng/mL and a Tmax [1, 10] of 0.5 h. For the same molecule, the Tmax ([1]; po, 1 mg/kg, 1 mg/kg oral C(I), per animal) was 0.5 h, the AUC(0-t) [1, 11] was 5.54 ± 0.33 ng·h/mL and the Cmax [1, 11] was 2.15 ± 0.195 ng/mL. The Tmax [1, 11] was 0.417 ± 0.144 h, the AUC(0-inf) [1, 12] was 6.87 ng·h/mL and the half-life [1, 12] was 3.01 h. For the same molecule, the MRT inf [1, 12] was 4.12 h, the half-life ([1]; po, 3 mg/kg, 3 mg/kg oral C(I), per animal, M43 estimate may not be accurate) was 3.01 h and the AUC(0-inf) [1, 13] was 6.87 ng·h/mL. It also gave an AUC(0-t) [1, 13] of 5.26 ng·h/mL, a Cmax [1, 13] of 1.95 ng/mL and an MRT inf [1, 13] of 4.12 h. For the same molecule, the Tmax [1, 13] was 0.5 h, the AUC(0-t) [1, 14] was 18.7 ± 4.25 ng·h/mL and the Cmax [1, 14] was 8.4 ± 2.17 ng/mL. It also gave a Tmax [1, 14] of 0.417 ± 0.144 h, an AUC(0-inf) [1, 15] of 20.2 ng·h/mL and a half-life [1, 15] of 1.31 h. For the same molecule, the MRT inf [1, 15] was 2.53 h, the AUC(0-inf) [1, 16] was 16.3 ng·h/mL and the AUC(0-t) [1, 16] was 15.8 ng·h/mL. It also gave a half-life [1, 16] of 1.45 h, a Cmax [1, 16] of 7.2 ng/mL and an MRT inf [1, 16] of 2.66 h. It also gave a Tmax [1, 16] of 0.25 h and an IC50 (DRD2S) of 91.1 µM.
